Laboratory results as given in patent publication US10550190B2 (Merck Sharp & Dohme Corp., priority 2014, dated 2020).
Where two headings read alike, the source gives them in different places.

Columns and labels:
[1] = Solubility of drug-linkers in 20% MeCN/H2O; conditions: aqueous with cosolvent or surfactant or cyclodextrin
[2] = In vitro stability, human whole blood incubation
Procedure: Human blood was collected the morning of the experiment from at least 3 individuals using K2EDTA as the anticoagulant. An equal volume from each individual was combined for use in the experiment. The experiment started no more than 2 hours after the blood collection. All drug-linker conjugates were solubilized in DMSO to form each 10 mM stock solution. Dosing solution for each linker was prepared by serial dilution of each stock solution using 1:3 acetonitrile:water. All solutions were kept on ice during the experiment.
Human blood was pre-warmed in a 37° C. water bath in an appropriate volume to collect samples over a time course from 0 through 6 hours. Incubating blood was mixed well just prior to sampling to give a homogenous mixture. Aliquots of blood were removed at appropriate time points, added to cold stopping solution, which was methanol containing an appropriate internal standard, and mixed rigorously. The samples were centrifuged at 4000 RPM for 10 minutes after which equal volumes of the supernatant fractions were diluted with cold deionized water. The samples were then ready for analysis.
(§1) A Thermo LX-2 ultra-performance liquid chromatography system coupled with a Sciex API5000 triple quadrupole mass spectrometer was used for the analysis. The payload and drug-linkers were retained and separated by a C18 column and detected by the mass spectrometer. […] Samples were kept in cold stack set at 5° C.

[3] = In vitro stability, rat liver lysosome incubation
Procedure: All linker compounds were solubilized in DMSO to form each 10 mM stock solution. Dosing solution for each linker was prepared by serial dilution of each stock solution using 1:3 acetonitrile:water. All solutions were kept on ice during the experiment.
Rat lysosomes were pre-warmed in a 37° C. water bath in an appropriate volume to collect samples over a time course from 0 minutes through 6 hours. Incubating lysosomes were mixed well just prior to sampling to give a homogenous mixture. Aliquots of lysosomes were removed at appropriate time points, added to cold stopping solution, which was methanol containing an appropriate internal standard, and mixed rigorously. The samples were centrifuged at 4000 RPM for 10 minutes after which equal volumes of supernatant were diluted with cold deionized water. The samples were ready for analysis.
as §1

[4] = not given; remark: listed apart in the source
physchem = conditions: aqueous with cosolvent or surfactant or cyclodextrin
[5] = Matrix spiking (time 0 sample, lysosomes pretreated with stopping reagent)

C[C@@H]1C[C@H]2[C@@H]3CCC4=CC(=O)C=C[C@]4(C)[C@@]3(F)[C@@H](O)C[C@]2(C)[C@@]1(O)C(=O)COP(=O)(O)Oc1ccc(NC(=O)COC2C#CCCCCC2)cc1 (stereo partly drawn) [Compound 5-3, 4-(2-(cyclooct-2-yn-1-yloxy)acetamido)phenyl (2-((8S,9R,10S,11S,13S,14S,16R,17R)-9-fluoro-11,17-dihydroxy-10,13,16-trimethyl-3-oxo-6,7,8,9,10,11,12,13,14,15,16,17-dodecahydro-3H-cyclopenta[a]phenanthren-17-yl)-2-oxoethyl) hydrogen phosphate]
solubility [1]: > 10000 µg/mL
Calculated Conc. for each compound in human whole blood ([2]; 37° C., 0 m): 1299 nM
Calculated Conc. for each compound in human whole blood ([2]; 37° C., 5 m): 1251 nM
Calculated Conc. for each compound in human whole blood ([2]; 37° C., 15 m): 1276 nM
Calculated Conc. for each compound in human whole blood ([2]; 37° C., 30 m): 1111 nM
Calculated Conc. for each compound in human whole blood ([2]; 37° C., 1 hr): 937 nM
Calculated Conc. for each compound in human whole blood ([2]; 37° C., 2 hr): 1480 nM
Calculated Conc. for each compound in rat lysosomal lysate ([3]; 37° C., 0 m): 1394.08 nM
Calculated Conc. for each compound in rat lysosomal lysate ([3]; 37° C., 5 m): 1295.86 nM
Calculated Conc. for each compound in rat lysosomal lysate ([3]; 37° C., 10 m): 1278.4 nM
Calculated Conc. for each compound in rat lysosomal lysate ([3]; 37° C., 15 m): 1407.73 nM
Calculated Conc. for each compound in rat lysosomal lysate ([3]; 37° C., 30 m): 1175.39 nM
Calculated Conc. for each compound in rat lysosomal lysate ([3]; 37° C., 1 hr): 970.65 nM
Calculated Conc. for each compound in rat lysosomal lysate ([3]; 37° C., 2 hr): 743.45 nM
Calculated Conc. for each compound in rat lysosomal lysate ([3]; 37° C., 3 hr): 500.41 nM
Calculated Conc. for each compound in rat lysosomal lysate ([3]; 37° C., 6 hr): 221.03 nM
Calculated Conc. for each compound in rat lysosomal lysate [3, 5]: 2555.29 nM

C[C@@H]1C[C@H]2[C@@H]3CCC4=CC(=O)C=C[C@]4(C)[C@@]3(F)[C@@H](O)C[C@]2(C)[C@@]1(O)C(=O)COP(=O)(O)OCCNC(=O)COC1C#CCCCCC1 (stereo partly drawn) [Compound 4-3, 2-(2-(cyclooct-2-yn-1-yloxy)acetamido)ethyl (2-((8S,9R,10S,11S,13S,14S,16R,17R)-9-fluoro-11,17-dihydroxy-10,13,16-trimethyl-3-oxo-6,7,8,9,10,11,12,13,14,15,16,17-dodecahydro-3H-cyclopenta[a]phenanthren-17-yl)-2-oxoethyl) hydrogen phosphate]
Calculated Conc. for each compound in human whole blood (0 min): 1539 nM
Calculated Conc. for dexamethasone in human whole blood (20 min): 0 nM
Calculated Conc. for each compound in human whole blood (20 min): 1861 nM
Calculated Conc. for dexamethasone in human whole blood (1 h): 0 nM
Calculated Conc. for each compound in human whole blood (1 h): 1619 nM
Calculated Conc. for dexamethasone in human whole blood (3 h): 1 nM
Calculated Conc. for each compound in human whole blood (3 h): 1677 nM
Calculated Conc. for dexamethasone in human whole blood (6 h): 3 nM
Calculated Conc. for each compound in human whole blood (6 h): 2040 nM
Calculated Conc. for dexamethasone in rat lysosomal lysate ([4]; 0 min): 0.9 nM
Calculated Conc. for each compound in rat lysosomal lysate ([4]; 0 min): 888.8 nM
Calculated Conc. for dexamethasone in rat lysosomal lysate ([4]; 5 min): 14.5 nM
Calculated Conc. for each compound in rat lysosomal lysate ([4]; 5 min): 1156.1 nM
Calculated Conc. for dexamethasone in rat lysosomal lysate ([4]; 10 min): 14.2 nM
Calculated Conc. for each compound in rat lysosomal lysate ([4]; 10 min): 983.4 nM
Calculated Conc. for dexamethasone in rat lysosomal lysate ([4]; 15 min): 22.3 nM
Calculated Conc. for each compound in rat lysosomal lysate ([4]; 15 min): 1032.6 nM
Calculated Conc. for dexamethasone in rat lysosomal lysate ([4]; 30 min): 28.9 nM
Calculated Conc. for each compound in rat lysosomal lysate ([4]; 30 min): 980.1 nM
Calculated Conc. for dexamethasone in rat lysosomal lysate ([4]; 1 h): 41.6 nM
Calculated Conc. for each compound in rat lysosomal lysate ([4]; 1 h): 882.4 nM
Calculated Conc. for dexamethasone in rat lysosomal lysate ([4]; 2 h): 72.5 nM
Calculated Conc. for each compound in rat lysosomal lysate ([4]; 2 h): 880.1 nM
Calculated Conc. for dexamethasone in rat lysosomal lysate ([4]; 3 h): 90.2 nM
Calculated Conc. for each compound in rat lysosomal lysate ([4]; 3 h): 903.8 nM
Calculated Conc. for dexamethasone in rat lysosomal lysate ([4]; 6 h): 141.9 nM
Calculated Conc. for each compound in rat lysosomal lysate ([4]; 6 h): 858.9 nM
solubility (physchem): > 10000 µg/mL

C[C@@H]1C[C@H]2[C@@H]3CCC4=CC(=O)C=C[C@]4(C)[C@@]3(F)[C@@H](O)C[C@]2(C)[C@@]1(O)C(=O)CO [Dexamethasone, dexamethasone, reference compound]
Calculated Conc. for each compound in human whole blood ([2]; 37° C., 0 m): 1687 nM
Calculated Conc. for each compound in human whole blood ([2]; 37° C., 20 m): 2409 nM
Calculated Conc. for each compound in human whole blood ([2]; 37° C., 1 hr): 2224 nM
Calculated Conc. for each compound in human whole blood ([2]; 37° C., 3 hr): 1502 nM
Calculated Conc. for each compound in human whole blood ([2]; 37° C., 6 hr): 2792 nM
Calculated Conc. for each compound in human whole blood ([2]; Matrix spiking (time 0 sample, blood pretreated with stopping reagent)): 2939 nM
Calculated Conc. for each compound in rat lysosomal lysate ([3]; 37° C., 0 m): 1456.4 nM
Calculated Conc. for each compound in rat lysosomal lysate ([3]; 37° C., 5 m): 1851.2 nM
Calculated Conc. for each compound in rat lysosomal lysate ([3]; 37° C., 10 m): 1640.8 nM
Calculated Conc. for each compound in rat lysosomal lysate ([3]; 37° C., 15 m): 1666.7 nM
Calculated Conc. for each compound in rat lysosomal lysate ([3]; 37° C., 30 m): 1602.6 nM
Calculated Conc. for each compound in rat lysosomal lysate ([3]; 37° C., 1 hr): 1576.8 nM
Calculated Conc. for each compound in rat lysosomal lysate ([3]; 37° C., 2 hr): 1681.0 nM
Calculated Conc. for each compound in rat lysosomal lysate ([3]; 37° C., 3 hr): 1689.7 nM
Calculated Conc. for each compound in rat lysosomal lysate ([3]; 37° C., 6 hr): 1689.8 nM
Calculated Conc. for each compound in rat lysosomal lysate [3, 5]: 2059.0 nM

C[C@@H]1C[C@H]2[C@@H]3CCC4=CC(=O)C=C[C@]4(C)[C@@]3(F)[C@@H](O)C[C@]2(C)[C@@]1(O)C(=O)COP(=O)(O)OP(=O)(O)Oc1ccc(NC(=O)COC2C#CCCCCC2)cc1 (stereo partly shown) [Compound 3-4]
solubility [1]: > 10000 µg/mL
Calculated Conc. for each compound in human whole blood ([2]; 37° C., 0 m): 1382 nM
Calculated Conc. for each compound in human whole blood ([2]; 37° C., 5 m): 1325 nM
Calculated Conc. for each compound in human whole blood ([2]; 37° C., 15 m): 1398 nM
Calculated Conc. for each compound in human whole blood ([2]; 37° C., 30 m): 1250 nM
Calculated Conc. for each compound in human whole blood ([2]; 37° C., 1 hr): 1141 nM
Calculated Conc. for each compound in human whole blood ([2]; 37° C., 2 hr): 1703 nM
Calculated Conc. for each compound in rat lysosomal lysate ([3]; 37° C., 0 m): 1252 nM
Calculated Conc. for each compound in rat lysosomal lysate ([3]; 37° C., 5 m): 501.28 nM
Calculated Conc. for each compound in rat lysosomal lysate ([3]; 37° C., 10 m): 149.18 nM
Calculated Conc. for each compound in rat lysosomal lysate [3, 5]: 3128.83 nM
detectability of drug-linker in rat lysosomal extract (in words) ([3]; after 10 minutes incubation): no longer detectable
